Measured values from paper PMC5635026, “Homo-PROTACs: bivalent small-molecule dimerizers of the VHL E3 ubiquitin ligase to induce self-degradation” (Nature Communications, 2017).

Tests used:
[1] = biological target: T1, pVHL19 (Homo sapiens, UniProt P40337); assay: Immunoblot of pVHL19 protein level in HeLa cells after compound treatment; assay type: cell-based; design: endogenous in cells; host or cells: HeLa; conditions: 10 h, read-out: pVHL19 band quantification normalized to 0.1% DMSO
Protocol: (§1) Cell culture. Human cell lines HeLa, U2OS and HEK 293, purchased from ATCC, were propagated in DMEM supplemented with 10% fetal bovine serum (FBS), L- glutamine, 100 μg ml^−1 of penicillin/streptomycin at 37 °C and 5% CO2. Cells were maintained for no more than 30 passages. All cell lines were routinely tested for mycoplasma contamination using MycoAlert kit from Lonza. For compound treatment experiments, cells were transferred in six-well plates with either 3 × 10^5 or 5 × 10^5 cells per well in 2 ml of media. At 80% confluence, cells were treated with compounds at the desired concentration, reaching final DMSO concentration of 0.1% v/v. Cells were incubated at 37 °C and 5% CO2 for the desired time before harvesting.
(§2) Immunoblotting. Cells were lysed in lysis buffer (20 mM Tris pH 8, 150 mM NaCl, 1% Triton × 100) and a protease inhibitor cocktail (Roche) per 10 ml buffer. For protein extracts, the dishes were placed on ice. The media was aspirated and the tissue layer washed twice with ice-cold phosphate buffer saline (PBS). Lysis buffer (120 μl) was added and the cells detached from the surface with a cell scraper. After removal of the insoluble fraction by centrifugation, the protein concentration of the supernatant was determined by Pierce™ Coomassie (Bradford) Protein Assay Kit. Protein extracts were fractionated by SDS-PAGE on 4–12% Tris-Acetate NuPage® Novex® (Life Technologies) polyacrylamide gels and transferred to a nitrocellulose membrane using wet transfer. The membrane was then blocked with 5 % w/v Bovine serum albumin (BSA) in Tris-buffered saline (TBS) with 0.1% w/v Tween-20. For detecting proteins the following primary antibodies in the given concentrations were used: anti-β-Actin (Cell Signaling Technology, 4970S, 13E5) 1:2000, anti-VHL (Cell Signaling Technology, #68547) 1:1000, anti-Hif-1α (BD Biosciences, 610959, clone 54) 1:1,000, anti-hydroxy-HIF-1α (Hyp564) (Cell Signaling Techonology; #3434) 1:1,000, anti-PHD2 (Bethyl Laboratories; A300-322A) 1:1,000, anti-PHD3 (Bethyl Laboratories; A300-327A) 1:1000, anti-CRBN (Proteintech; 11435-1-AP) 1:1,000. Following incubation with a horseradish peroxidase-conjugated secondary antibody (Cell Signaling Technology), the signal was developed using enhanced chemiluminescence (ECL) Western Blotting Detection Kit (Amersham) on Amersham Hyperfilm ECL film (Amersham). Band quantification was performed using ImageJ software and reported as relative amount as ratio of the each protein band relative to the lane’s loading control. The values obtained were then normalized to 0.1% DMSO vehicle control. See Supplementary Fig. 12 for full-scanned images of western-blots shown in the main text figures.
Target sequence in this assay (P40337 54-213): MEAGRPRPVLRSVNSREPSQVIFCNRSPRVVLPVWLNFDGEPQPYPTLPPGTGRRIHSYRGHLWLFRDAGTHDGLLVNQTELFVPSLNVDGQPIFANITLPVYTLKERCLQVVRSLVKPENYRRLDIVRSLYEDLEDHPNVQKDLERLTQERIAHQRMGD
Target sequence in this assay (Q15369 whole entry partner): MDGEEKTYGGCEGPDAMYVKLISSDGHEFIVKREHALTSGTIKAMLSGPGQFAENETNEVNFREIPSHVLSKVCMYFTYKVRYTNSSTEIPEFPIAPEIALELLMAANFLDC
Target sequence in this assay (Q15370 whole entry partner): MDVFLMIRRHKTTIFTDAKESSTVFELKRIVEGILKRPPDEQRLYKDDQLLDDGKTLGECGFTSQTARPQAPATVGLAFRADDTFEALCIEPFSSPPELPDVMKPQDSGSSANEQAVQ

[2] = biological target: T1, pVHL19; design: made in house; method as in PMID 25166285; conditions: ITC, ref [18]; cited from earlier work
Target sequence in this assay (P40337 54-213): as the sequence (P40337 54-213) above
Target sequence in this assay (Q15369 17-112 partner limits assumed): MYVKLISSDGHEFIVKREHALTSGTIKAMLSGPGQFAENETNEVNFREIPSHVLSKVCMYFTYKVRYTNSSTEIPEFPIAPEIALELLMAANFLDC
Target sequence in this assay (Q15370 1-104 partner limits assumed): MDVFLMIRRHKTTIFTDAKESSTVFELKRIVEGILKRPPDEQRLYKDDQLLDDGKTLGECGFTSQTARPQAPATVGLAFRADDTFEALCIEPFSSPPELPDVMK

[3] = system: HIF-1α; assay: TMT MS proteomics in HeLa cells, HIF-1α level; assay type: cell-based, Human; conditions: 150 µM, 10 h
Protocol: MS proteomics. Sample preparation. HeLa cells were seeded at 5 × 10^6 on a 10 cm plate 16 h before treatment. […] Cells were incubated at 37 °C and 5% CO2 for 10 h before harvesting. Cells were placed on ice and medium was removed and cells were washed twice with cold PBS. Cells were lysed in 0.5 ml of 100 mM Tris pH 8.0, 4% (w/v) SDS supplemented with protease inhibitor cocktail (Roche). The lysate was pulse sonicated briefly and then centrifuged at 17,000 × g for 15 min at 4 °C. The supernatant fraction of cell extract was snap-frozen in liquid nitrogen and stored in −80 °C freezer. Further sample processing, digestion, desalting, labeling and fractionation were performed as previously described.
nLC-MS/MS analysis. The TMT 10plex fractions were first analyzed as previously described. Briefly, the TMT 10plex fractions were analyzed sequentially on a Q Exactive HF Hybrid Quadrupole-Orbitrap Mass Spectrometer (Thermo Scientific) coupled to an UltiMate 3000 RSLCnano UHPLC system (Thermo Scientific) and EasySpray column (75 μm × 50 cm, PepMap RSLC C18 column, 2 μm, 100 Å, Thermo Scientific). The MS2 isolation window was set to 0.4 Da and the resolution set at 120,000. MS2 resolution was set at 60,000. […] After the first analysis, the TMT labeled fractions were re-analyzed on the Q-Exactive HF using the same instrument settings and a target list generated from a theoretical trypsin digest of VHL. […]

[4] = system: Hdy-HIF-1α; assay: Immunoblot of HIF-1α / hydroxylated HIF-1α levels in HeLa cells; assay type: cell-based, Human
Protocol: as §1, §2

[5] = biological target: pVHL30 (Homo sapiens, UniProt P40337); assay: Immunoblot of pVHL30 protein level in HeLa cells after compound treatment; assay type: cell-based; design: endogenous in cells; host or cells: HeLa; conditions: 10 h, read-out: pVHL30 band quantification normalized to 0.1% DMSO
Protocol: as §1, §2

Chain of pVHL30 (P40337 whole entry): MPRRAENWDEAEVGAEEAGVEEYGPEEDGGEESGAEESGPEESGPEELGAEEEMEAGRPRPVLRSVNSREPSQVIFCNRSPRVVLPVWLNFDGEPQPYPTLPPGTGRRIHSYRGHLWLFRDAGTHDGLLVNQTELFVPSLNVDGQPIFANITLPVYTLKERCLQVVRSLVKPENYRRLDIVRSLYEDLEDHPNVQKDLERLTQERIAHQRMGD

For `CC(=O)N[C@H](C(=O)N1C[C@H](O)C[C@H]1C(=O)NCc1ccc(-c2scnc2C)cc1)C(C)(C)C` [VH032, reference compound], the remaining activity at 150 µM [1] is listed as 113%, the ΔG [2] is listed as “–9.17 ± 0.02 kcal mol^−1” and the ΔH [2] is listed as “–5.53 ± 0.01 kcal mol^−1”. For the same molecule, the “−TΔS” value [2] was “–3.65 ± 0.02 kcal mol^−1”, the “protein levels of HIF-1α” value [3] was “increased” and the “effect on HIF-1α at 1 µM” value ([4]; HeLa, 1 µM) was “completely ineffective”. The “concentration at which active in cells” value ([4]; inhibitory concentration of the ligand alone in cells) was ~ 100 µM and the remaining pVHL30 protein level at 150 µM [5] was 127%.
